# Test results: patent US20190308987A1, “DUAL MODULATORS OF BOTH MU AND KAPPA OPIOID RECEPTORS” (priority 2016, published 2019)
# Entries after “also recorded” stand apart in the source; their conditions may differ.
# Columns and labels:
# [1] = system: intestinal transit; assay: Charcoal meal test for gastrointestinal transit; assay type: in vivo, mice
# Description: Forty-eight hours before testing, mice were placed in cages with raised mesh wire to suspend them above their bedding and prevent ingestion of feces or bedding. The animals were habituated for 24 h in the presence of food and water and then fasted for 24 h with free access to water as previously reported.^24 This time frame was chosen to deplete the intestine and colon of any feces. To maintain caloric intake and to avoid hypoglycemia, mice had access to a sugar water solution consisting of a final concentration of 5% dextrose for the first 8 h of the fasting period. […] At 30 min after the administration of the charcoal meal, the mice were euthanized by cervical dislocation, and the small intestine from the jejunum to the cecum was dissected and placed in cold saline to stop peristalsis. The distance traveled by the leading edge of the charcoal meal was measured relative to the total length of the small intestine, and the percentage of intestinal transit for each animal was calculated as percentage transit (charcoal distance)/(small intestinal length)×100. This is referred to as intestinal transit in the text.
# [2] = target: T1, kappa opioid receptor (KOR) (Homo sapiens, UniProt P41145); assay: Competitive radioligand binding, KOR ([3H]nor-BNI)
# T1 construct: expressed in transfected cells; host or cells: CHO cells (membranes)
# Description: The details of the Radioligand Binding and Functional Studies that were used were described previously.^19 Chinese hamster ovarian (CHO) cell lines were used as monoclonal opioid receptor expressing cells. The μ, δ, and κ opioid receptors were labeled with [^3H]naloxone, ^3H-naltrindole ([^3H]NTI) and ^3H-nor-Binaltorphimine ([^3H]norBNI). The opioid receptor expressing cell membranes were incubated with the radioligands at different concentrations of the drug under investigation at 30° C. for 1 h. With the absence and presence of 10 μM naltrexone, specific binding was got as the difference in binding obtained. The specific binding of the drugs to the radioligand was calculated from data using linear regression analysis of Hill plots.
# (§1) All samples were assayed in triplicate and repeated at least twice for a total of 3 independent determinations. Results were reported as mean values±SEM. Concentration-effect curves were fit by nonlinear regression to a one-site binding model, using GraphPad Prism software, to determine EC50 and Emax values. IC50 values were obtained from Hill plots and analyzed by linear regression using Microsoft Excel software. Binding Ki values were determined from IC50 values using the Cheng-Prusoff equation: Ki=IC50/l+([L]/KD), where [L] is the concentration of […] and KD is the KD of the radioligand.
# [3] = system: guinea pig ileum Longitudinal Muscle Myenteric Plexus (LMMP); assay: Electrical field stimulated contractions in LMMP strips
# Description: Male albino guinea pigs (350-450 g) were euthanized by asphyxiation with CO2. A segment of ileum was removed and placed in a dissection bath filled with pre-oxygenated Krebs' solution (118 mM NaCl, 4.6 mM KCl, 1.3 mM NaH2PO4, 1.2 mM MgSO4, 25 mM NaHCO3, 11 mM glucose, and 2.5 mM CaCl2). Longitudinal Muscle Myenteric Plexus (LMMP) strips were prepared as previously described.^26 Electrical field stimulation (EFS) (50 V, 7.5 Hz, unless stated otherwise) was applied through concentric electrodes over longitudinal muscle or L-type stimulating electrodes over circular muscle strips to produce neurogenic contractions/relaxations. Drugs were added in single or cumulative doses depending on the assay to determine their inhibitory effects on the neurogenic responses.
# [4] = system: mouse proximal colon circular muscle; assay: Colon circular muscle isometric tension recordings, proximal colon
# Description: Mice were euthanized by cervical dislocation. The colon was dissected, flushed of its contents, and trimmed of mesentery. […] The tissues, 0.5 cm in length, were suspended vertically along the axis of the circular muscle with a metal triangle tied to a hook under 1 g of passive tension in 15 mL siliconized organ baths.
# Data are presented as the mean±S.E.M, values of P≤0.05 were considered significant.
# [5] = system: visceral pain (abdominal stretches); assay: Acetic acid induced writhing assay; assay type: in vivo, Swiss Webster mice
# Description: To determine whether BNAP provides KOR mediated analgesia acetic acid-induced abdominal stretches were counted in mice. Swiss Webster mice were allowed to acclimate in individual testing cages for at least 10 min. Following the acclimation period the vehicle or BNAP was administered via s.c injection at the specified dose. After waiting for 10 min the mice were injected intraperitoneally with 10 mL/kg 0.6% (wt/vol) acetic acid and returned to their observation chambers. After the first 3 min, the number of stretches and abdominal contractions were counted for 15 min. All values shown for abdominal stretching experiments represent separate groups of mice (n=4-8) as each animal was tested only once and euthanized immediately after testing.
# In order to confirm the involvement of the KOR in the analgesia produced by BNAP in the Acetic Acid Induced Writhing test, this test was performed in the presence of the KOR-specific antagonist nor-Binaltorphimine 2HCl (nor-BNI). According to previous literature, nor-BNI antagonist activity reaches optimal selectivity and efficacy in the writhing test at 24 hours post administration.^27, 28 These animals were injected sub-cutaneously with either 10 mg/kg nor-BNI or saline 24 hours prior to initiation of the writhing test. The writhing test was then performed as described above (n=5-6).
# [6] = target: T2, DOR (Homo sapiens, UniProt P41143); assay: [35S]GTPγS-binding assay, DOR-expressing CHO cell membranes; assay type: biochemical
# T2 construct: expressed in transfected cells; host or cells: CHO cells (membranes)
# Description: [^35S]-GTPγS-Binding Assays using DOR- or KOR-Expressing CHO Cell Lines: Cell membranes (10 μg protein) were incubated with 10 μM GDP and 0.1 nM [^35S]-GTPγS in assay buffer in the presence and absence of varying concentrations of BNAP, 3 μM SNC80 (standard full agonist at DOR) or 3 μM U50,488H (standard full agonist at KOR) for 90 min at 30° C. Nonspecific binding was determined with 10 μM unlabeled GTPγS. The reaction was terminated and bound radioactivity determined as described above and previously.^9
# as §1
structure (smiles),measurement,setting,value
O=C(N[C@@H]1CC[C@@]2(O)[C@H]3Cc4ccc(O)c5c4[C@@]2(CCN3CC2CC2)C1O5)c1cc[n+](Cc2ccccc2)cc1 (stereo partly drawn) [BNAP],reduction of intestinal motility,"[1]; charcoal gavage, compound alone",1.5 fold
same,reversal of morphine induced inhibition of intestinal motility,[1]; mice treated acutely with morphine,unable to reverse morphine induced inhibition of intestinal motility
same,Ki,"[2]; KOR, [3H]nor-BNI, read-out: Ki (nM) ± SEM",3.46 ± 0.05 nM
same,Selectivity (κ/μ),[2]; ratio of Ki KOR/MOR,4.6
same,IC50,"[3]; Cavia porcellus, guinea pig ileum LMMP, read-out: pIC50 for inhibition of EFS contractions (converted)",0.0138 µM
same,effect of nor-BNI on agonist concentration-response curve,"[3]; nor-BNI pretreatment 15 min, dose dependent",dose dependently shifted the BNAP concentration-response curve to the right
same,inhibition of morphine-induced contractions,"[4]; 1 nM antagonist, proximal colon",neither NAP nor BNAP showed significant inhibition of morphine-induced contractions
same,morphine pD2 in presence of antagonist,"[4]; 10 nM antagonist, proximal colon (naive 6.8)",5.9
same,further reduction of morphine pD2,"[4]; 100 nM versus 10 nM antagonist, proximal colon",no further reduction of the morphine pD2
same,contractions induced by compound alone,"[4]; up to 30 μM, proximal colon preparation",Neither BNAP nor NAP alone at concentrations up to 30 μM induced contractions
same,analgesia in presence of nor-BNI,"[5]; 10 mg/kg nor-BNI s.c. 24 h before, morphine pelleted animals",effectively blocked the analgesia produced by BNAP
same,active concentration in hypernociceptive model,[5]; mice chronically treated with 75 mg morphine pellet,active at three fold lower concentration; also recorded: active at concentrations three-fold lower
same,number of writhes,"[5]; s.c., naive mice",dose dependently reduced the number of writhes
same,EC50,[6]; 35S-GTP[γS],0.108 ± 0.069 µM
same,% max of agonist,[6]; Emax relative to full agonist SNC80,9.2±2.2%
